Measured values taken from paper PMC4770311, “Discovery and Characterization of GSK2801, a Selective Chemical Probe for the Bromodomains BAZ2A and BAZ2B” (Journal of Medicinal Chemistry, 2015).
Where “and” joins values, the source holds several entries; their conditions need not be identical. Identical values can stand only once.

How the values were obtained:
BAZ2A [1] = molecular target: T1, BAZ2A (Homo sapiens, UniProt Q9UIF9); assay: AlphaScreen assay BAZ2A; type: binding; conditions: average of three replicates ± SEM
T1 construct: Recombinant BAZ2A and BAZ2B bromodomains were expressed in; made in house; host or cells: E. coli
T1 sequence (Q9UIF9 1793-1897 limits assumed): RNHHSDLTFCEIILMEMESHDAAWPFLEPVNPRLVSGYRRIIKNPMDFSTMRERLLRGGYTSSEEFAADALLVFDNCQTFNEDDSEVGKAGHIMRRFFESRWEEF
Method: (§1) AlphaScreen: AlphaScreen was performed as described previously 10, with minor modifications from the manufacturers protocol (PerkinElmer, USA). Briefly, all reagents were diluted in the recommended buffer (50 mM HEPES, 100 mM NaCl, 0.1% BSA; pH = 7.4) supplemented with 0.05% CHAPS and allowed to equilibrate to room temperature prior to […]
(§2) Plates were sealed and incubated at room temperature for 30 min. 4 μL of streptavidin-coated donor beads (10ug/mL final) and 4 μL of nickel chelate acceptor beads (10 μg/ml final) were then added under low light conditions. Plates were foil sealed to protect from light, incubated at room temperature for 60 min and read on a PHERAstar FS plate reader (BMG Labtech, Germany) using an AlphaScreen 680 excitation/570 emission filter set.
(§3) Fragments were dissolved in ethylene glycol to overcome sensitivity of the bromodomain assay to DMSO and allow compounds to be screened at mM concentrations. IC50 […]
(§4) measurements were taken over a 12 point 1:2 serial dilution of compound. IC50s were calculated in GraphPad Prism 5 (GraphPad Software, USA). […]

BRD4(1) = molecular target: T2, BRD4(1) (Homo sapiens, UniProt O60885); assay: AlphaScreen cross screening BRD4(1); type: binding; conditions: average of three replicates ± SEM
T2 construct: […]
Method: as §1, §2, §3, §4

BRD9 [2] = molecular target: T3, BRD9 (Homo sapiens, UniProt Q9H8M2); assay: AlphaScreen cross screening BRD9; type: binding; conditions: average of three replicates ± SEM
T3 construct: ITC experiments using the bromodomain of BRD9
Method: as §1, §2, §3, §4

TAF1L(2) = molecular target: T4, TAF1L(2) (Homo sapiens, UniProt Q8IZX4); assay: Isothermal titration calorimetry TAF1L(2); type: binding; conditions: ITC
T4 construct: the second bromodomain in TAF1L(2)
T4 sequence (Q8IZX4 1517-1626 limits assumed): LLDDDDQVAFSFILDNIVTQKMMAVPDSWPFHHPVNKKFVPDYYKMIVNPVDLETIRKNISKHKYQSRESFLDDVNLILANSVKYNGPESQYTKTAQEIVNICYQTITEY
Method: Thermal stability shift assays: The recombinant bromodomains at 2 µM were mixed with 10 µM inhibitors. The assays and data evaluation for melting temperatures were performed using a Real-Time PCR Mx3005p machine (Stratagene) and the protocols previously […]
Isothermal titration calorimetry: All calorimetric titration experiments were carried out on VP-ITC (MicroCal) at 15 °C. The buffer condition used was 20 mM HEPES, pH 7.5, 150 mM NaCl and 0.5 mM TCEP. Titration was performed by injecting the proteins (200 µM) into a […]
Integrated heat of the titrations after corrected for the heat of dilution were analysed using the Origin program. The corrected data were fitted to a single binding site model using a nonlinear least-square minimization algorithm, and the binding parameters including reaction enthalpy changes (ΔH), reaction […] changes (TΔS), equilibrium dissociation constants (KD), stoichiometry (n) were calculated.
AlphaScreen: AlphaScreen was performed as described previously 10, with minor modifications from the manufacturers protocol (PerkinElmer, USA). […]
Plates were sealed and incubated at room temperature for 30 min. […] Plates were foil sealed to protect from light, incubated at room temperature for 60 min and read on a PHERAstar FS plate reader (BMG Labtech, Germany) using an AlphaScreen 680 excitation/570 emission filter set. […]

BRD9 [3] = molecular target: T3, BRD9; assay: Isothermal titration calorimetry BRD9; type: binding; conditions: ITC
Method: VP-ITC (MicroCal) at 15 °C.
reaction cell containing the inhibitors (15 µM). Integrated heat of the titrations after corrected
modifications from the manufacturers protocol (PerkinElmer, USA). Briefly, all reagents were
final) were then added under low light conditions. Plates were foil sealed to protect from […]

BRD9 [4] = molecular target: T3, BRD9; assay: Thermal stability shift assay BRD9; type: binding; conditions: inhibitor concentration 10 μM; read-out: temperature shift (ΔTm) BRD9
[5] = test system: panel of biotin-labeled bromodomains; conditions: two concentrations, 0.2 and 1.0 μM
Method: measurements were taken over a 12 point 1:2 serial dilution of compound. IC50s were calculated in GraphPad Prism 5 (GraphPad Software, USA).
Biolayer interference assays. BAZ2A and BAZ2B were expressed in frame with a C- […]
of a single biotin using the biotin ligase (BirA) which has been co-expressed in E. coli using the co-expression vector BL21(DE3)-R3-pRARE2-BirA. Cells were grown in the presence of 0.1 mM biotin and were lysed and purified using a similar procedure as described for the non-biotin labelled protein.
The biotin labelled BAZ2B and BAZ2A was immobilized on SuperStreptavidin BLI sensors.
BioLayer Interferometry (BLI) experiments were performed on a 16-channel ForteBio Octet […]
buffer. The reference sensors without attached bromodomain were used to subtract background binding to SuperStreptavidin sensors. Data were processed and analysed using ForteBio Analysis software.
Determination of PK profiles for GSK2801 after IP (intraperitoneal) and PO (oral) administrations to male CD-1 mice: These PK studies were performed by the DMPK […]
The IP and PO dosing solutions were prepared in 0.5%
Test system: CD-1 mice, 28-32g, male, N=18, purchased from SLAC Laboratory Animal Co.
LTD. The animals were given free access to food and water. A dose of 30 mg/kg (10 mL/kg) was used via intraperitoneal injection (N=9) and for oral dosing 30 mg/kg (10 mL/kg) via gavage (N=9). […]

BRD9 [6] = molecular target: T5, BRD9 (Homo sapiens, UniProt Q9H8M2); assay: Chemoproteomic competition binding assay, endogenous BRD9; conditions: HuT78 extracts; competition with affinity matrix
T5 construct: endogenous in cells; host or cells: HuT78
T5 sequence (Q9H8M2 1-597): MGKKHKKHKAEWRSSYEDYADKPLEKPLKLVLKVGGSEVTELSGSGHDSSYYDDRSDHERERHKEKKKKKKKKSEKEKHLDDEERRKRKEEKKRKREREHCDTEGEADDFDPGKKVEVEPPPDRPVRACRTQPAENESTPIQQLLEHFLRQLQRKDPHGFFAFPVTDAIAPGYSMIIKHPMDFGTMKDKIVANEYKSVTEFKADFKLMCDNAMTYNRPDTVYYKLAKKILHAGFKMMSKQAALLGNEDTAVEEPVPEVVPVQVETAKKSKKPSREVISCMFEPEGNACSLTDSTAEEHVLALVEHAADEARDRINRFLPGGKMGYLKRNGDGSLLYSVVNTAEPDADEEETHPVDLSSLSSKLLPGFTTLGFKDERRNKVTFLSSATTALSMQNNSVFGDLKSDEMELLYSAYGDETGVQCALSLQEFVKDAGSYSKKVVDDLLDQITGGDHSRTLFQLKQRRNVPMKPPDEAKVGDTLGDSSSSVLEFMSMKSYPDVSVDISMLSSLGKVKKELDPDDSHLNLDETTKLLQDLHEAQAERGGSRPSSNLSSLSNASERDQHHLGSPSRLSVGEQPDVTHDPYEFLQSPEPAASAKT

BAZ2A [7] = molecular target: BAZ2A (Homo sapiens, UniProt Q9UIF9); assay: Chemoproteomic competition binding assay, endogenous BAZ2A; conditions: up to a concentration of 50 μM; HuT78 extracts
Target sequence in this assay (Q9UIF9 whole entry): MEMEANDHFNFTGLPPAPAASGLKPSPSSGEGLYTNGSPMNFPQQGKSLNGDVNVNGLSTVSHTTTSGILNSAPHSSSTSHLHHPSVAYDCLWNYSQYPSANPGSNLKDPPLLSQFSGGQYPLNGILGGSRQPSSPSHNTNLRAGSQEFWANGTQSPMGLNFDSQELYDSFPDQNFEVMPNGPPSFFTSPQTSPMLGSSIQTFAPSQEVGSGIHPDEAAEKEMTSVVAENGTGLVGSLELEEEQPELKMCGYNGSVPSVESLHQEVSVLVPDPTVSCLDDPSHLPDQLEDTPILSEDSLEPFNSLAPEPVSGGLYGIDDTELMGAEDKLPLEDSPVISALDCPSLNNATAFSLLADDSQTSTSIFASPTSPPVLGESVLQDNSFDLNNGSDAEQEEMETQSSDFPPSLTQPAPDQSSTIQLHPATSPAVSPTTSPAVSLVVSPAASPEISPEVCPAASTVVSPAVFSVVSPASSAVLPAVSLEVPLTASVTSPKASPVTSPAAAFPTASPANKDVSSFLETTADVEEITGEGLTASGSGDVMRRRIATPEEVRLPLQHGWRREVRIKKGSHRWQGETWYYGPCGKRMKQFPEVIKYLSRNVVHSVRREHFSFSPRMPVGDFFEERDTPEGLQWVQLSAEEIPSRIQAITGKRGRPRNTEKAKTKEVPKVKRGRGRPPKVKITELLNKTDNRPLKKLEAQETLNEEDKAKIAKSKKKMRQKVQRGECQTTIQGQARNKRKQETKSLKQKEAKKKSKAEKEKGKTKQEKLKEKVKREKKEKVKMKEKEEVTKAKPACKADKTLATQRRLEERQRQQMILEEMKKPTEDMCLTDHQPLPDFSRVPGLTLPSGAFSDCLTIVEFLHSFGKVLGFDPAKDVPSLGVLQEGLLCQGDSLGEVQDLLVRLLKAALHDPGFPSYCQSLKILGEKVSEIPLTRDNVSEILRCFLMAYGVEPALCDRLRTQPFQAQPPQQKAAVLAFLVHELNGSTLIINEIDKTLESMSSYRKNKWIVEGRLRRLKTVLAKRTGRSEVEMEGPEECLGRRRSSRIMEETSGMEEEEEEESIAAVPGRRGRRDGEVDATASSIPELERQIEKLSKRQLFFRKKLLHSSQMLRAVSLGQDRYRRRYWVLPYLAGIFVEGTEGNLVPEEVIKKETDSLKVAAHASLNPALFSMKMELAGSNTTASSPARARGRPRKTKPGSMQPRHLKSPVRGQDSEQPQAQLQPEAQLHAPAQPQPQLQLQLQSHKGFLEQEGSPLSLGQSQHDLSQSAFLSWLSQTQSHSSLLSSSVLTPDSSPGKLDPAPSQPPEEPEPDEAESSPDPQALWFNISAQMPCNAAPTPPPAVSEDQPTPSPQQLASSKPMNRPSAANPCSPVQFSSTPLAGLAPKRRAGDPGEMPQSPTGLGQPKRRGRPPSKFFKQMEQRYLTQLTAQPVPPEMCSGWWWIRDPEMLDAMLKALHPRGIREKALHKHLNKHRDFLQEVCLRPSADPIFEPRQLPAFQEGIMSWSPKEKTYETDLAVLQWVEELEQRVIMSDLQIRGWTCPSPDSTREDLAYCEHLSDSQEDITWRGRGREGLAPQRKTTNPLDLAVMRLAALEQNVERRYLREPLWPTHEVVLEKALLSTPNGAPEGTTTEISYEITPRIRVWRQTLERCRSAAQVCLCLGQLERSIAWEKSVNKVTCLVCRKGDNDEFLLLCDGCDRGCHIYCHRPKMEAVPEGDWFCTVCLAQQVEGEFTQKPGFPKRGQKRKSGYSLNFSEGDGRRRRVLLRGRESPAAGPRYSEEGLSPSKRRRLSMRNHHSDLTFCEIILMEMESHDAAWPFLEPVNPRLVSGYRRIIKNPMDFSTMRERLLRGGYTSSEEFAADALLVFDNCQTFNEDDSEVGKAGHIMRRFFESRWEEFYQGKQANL

BAZ2B = BAZ2B (Homo sapiens, UniProt Q9UIF8); assay: Chemoproteomic competition binding assay, endogenous BAZ2B; conditions: up to a concentration of 50 μM; HuT78 extracts
Chain of BAZ2B (Q9UIF8 whole entry): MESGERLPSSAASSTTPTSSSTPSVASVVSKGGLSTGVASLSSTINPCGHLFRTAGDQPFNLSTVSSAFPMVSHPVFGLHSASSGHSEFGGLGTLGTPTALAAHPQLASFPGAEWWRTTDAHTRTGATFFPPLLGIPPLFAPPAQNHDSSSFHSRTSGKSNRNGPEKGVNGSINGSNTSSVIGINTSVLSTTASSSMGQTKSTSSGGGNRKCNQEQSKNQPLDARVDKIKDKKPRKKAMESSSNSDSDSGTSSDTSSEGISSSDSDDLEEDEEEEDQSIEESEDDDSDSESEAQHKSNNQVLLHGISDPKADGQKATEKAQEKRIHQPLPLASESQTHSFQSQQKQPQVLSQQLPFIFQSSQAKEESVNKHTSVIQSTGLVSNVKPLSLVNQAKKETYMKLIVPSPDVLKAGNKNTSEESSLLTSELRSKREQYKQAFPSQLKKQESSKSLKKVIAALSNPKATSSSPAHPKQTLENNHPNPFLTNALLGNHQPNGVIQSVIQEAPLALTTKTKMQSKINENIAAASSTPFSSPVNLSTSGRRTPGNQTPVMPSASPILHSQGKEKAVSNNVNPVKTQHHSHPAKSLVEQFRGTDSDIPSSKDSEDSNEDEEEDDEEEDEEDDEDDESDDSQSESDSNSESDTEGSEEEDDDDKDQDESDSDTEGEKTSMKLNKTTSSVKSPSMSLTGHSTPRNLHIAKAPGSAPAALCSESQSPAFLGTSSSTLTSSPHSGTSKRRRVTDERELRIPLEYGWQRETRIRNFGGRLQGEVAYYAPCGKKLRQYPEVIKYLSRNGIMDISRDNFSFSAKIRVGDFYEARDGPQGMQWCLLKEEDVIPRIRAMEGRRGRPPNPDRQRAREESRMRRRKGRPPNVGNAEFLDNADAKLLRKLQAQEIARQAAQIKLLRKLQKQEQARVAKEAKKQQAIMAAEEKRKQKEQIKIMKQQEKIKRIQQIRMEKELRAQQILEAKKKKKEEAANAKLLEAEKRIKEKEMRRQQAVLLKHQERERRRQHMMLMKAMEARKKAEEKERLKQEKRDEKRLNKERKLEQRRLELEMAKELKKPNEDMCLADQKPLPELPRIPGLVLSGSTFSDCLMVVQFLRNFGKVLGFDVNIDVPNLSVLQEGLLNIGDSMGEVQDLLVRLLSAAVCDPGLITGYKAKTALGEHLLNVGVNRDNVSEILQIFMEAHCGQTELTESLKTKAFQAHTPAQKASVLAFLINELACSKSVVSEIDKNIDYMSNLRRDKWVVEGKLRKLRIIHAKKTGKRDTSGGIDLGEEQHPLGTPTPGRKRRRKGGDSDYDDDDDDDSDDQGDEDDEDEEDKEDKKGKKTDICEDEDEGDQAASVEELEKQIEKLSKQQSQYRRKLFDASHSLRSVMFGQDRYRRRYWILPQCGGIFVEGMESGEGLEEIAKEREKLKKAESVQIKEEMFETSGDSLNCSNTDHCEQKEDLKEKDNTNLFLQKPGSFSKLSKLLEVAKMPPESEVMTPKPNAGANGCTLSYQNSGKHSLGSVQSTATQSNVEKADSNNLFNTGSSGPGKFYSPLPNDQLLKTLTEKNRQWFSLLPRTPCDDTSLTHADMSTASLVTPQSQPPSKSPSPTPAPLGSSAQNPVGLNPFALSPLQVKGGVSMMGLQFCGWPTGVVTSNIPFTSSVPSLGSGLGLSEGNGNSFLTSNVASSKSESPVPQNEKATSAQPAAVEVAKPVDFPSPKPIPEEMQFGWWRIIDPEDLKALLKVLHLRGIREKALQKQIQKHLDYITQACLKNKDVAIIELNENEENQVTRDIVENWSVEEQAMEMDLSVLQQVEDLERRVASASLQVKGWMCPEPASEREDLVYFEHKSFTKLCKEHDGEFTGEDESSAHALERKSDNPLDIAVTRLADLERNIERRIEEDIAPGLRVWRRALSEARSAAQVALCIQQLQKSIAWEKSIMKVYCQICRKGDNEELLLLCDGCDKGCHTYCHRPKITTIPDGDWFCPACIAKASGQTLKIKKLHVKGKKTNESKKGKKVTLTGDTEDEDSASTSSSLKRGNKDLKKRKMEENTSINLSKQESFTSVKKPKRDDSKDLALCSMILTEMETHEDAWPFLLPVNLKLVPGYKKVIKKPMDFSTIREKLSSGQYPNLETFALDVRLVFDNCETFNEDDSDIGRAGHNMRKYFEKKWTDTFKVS

SMARCA2 and 4 = assay: Chemoproteomic competition binding assay, endogenous SMARCA2 and 4; conditions: HuT78 extracts; likely indirect via BRD9 in BAF complex

## COc1cccc(-c2cc(C(C)=O)n3ccccc23)c1 [Compound 3, 1-(1-(3-Methoxyphenyl)indolizin-3-yl)ethanone]
BAZ2A [1]
  IC50: > 30000 nM

## CC(=O)c1cc(-c2cccs2)c2ccccn12 [Compound 4, 1-(1-(Thiophen-2-yl)indolizin-3-yl)ethanone]
BAZ2A [1]
  IC50: 8600 ± 10 nM

## CC(=O)c1cc(-c2ccccc2O)c2ccccn12 [Compound 5, 1-(1-(2-hydroxyphenyl)indolizin-3-yl)ethanone]
BAZ2A [1]
  IC50: 7200 ± 60 nM

## CC(=O)c1cc(-c2cccc(O)c2)c2ccccn12 [Compound 6, 1-(1-(3-hydroxyphenyl)indolizin-3-yl)ethanone]
BAZ2A [1]
  IC50: 3300 ± 50 nM

## CC(=O)c1cc(-c2ccccc2CO)c2ccccn12 [Compound 7, 1-(1-(2-(hydroxymethyl)phenyl)indolizin-3-yl)ethanone]
BAZ2A [1]
  IC50: 1800 ± 50 nM
BRD4(1)
  IC50: 38900 ± 13300 nM
BRD9 [2]
  IC50: 23700 ± 160 nM

## CC(=O)c1cc(-c2cccc(C(N)=O)c2)c2ccccn12 [Compound 8, 3-(3-acetylindolizin-1-yl)benzamide]
BAZ2A [1]
  IC50: 1800 ± 20 nM

## COc1ccc(-c2cc(C(C)=O)n3ccccc23)c(CO)c1 [Compound 9, 1-(1-(2-(hydroxymethyl)-4-methoxyphenyl)indolizin-3-yl)ethanone]
BAZ2A [1]
  IC50: 1400 ± 10 nM

## CC(=O)c1cc(-c2ccc(CO)cc2)c2ccccn12 [Compound 10, 1-(1-(4-(hydroxymethyl)phenyl)indolizin-3-yl)ethanone]
BAZ2A [1]
  IC50: 1200 ± 70 nM

## CC(=O)c1cc(-c2ccc(N(C)C)cc2)c2ccccn12 [Compound 11, 1-(1-(4-(dimethylamino)phenyl)indolizin-3-yl)ethanone]
BAZ2A [1]
  IC50: 1100 ± 70 nM

## CC(=O)c1cc(-c2ccccc2S(C)(=O)=O)c2ccccn12 [Compound 12, 1-(1-(2-(methylsulfonyl)phenyl)indolizin-3-yl)ethanone]
BAZ2A [1]
  IC50: 720 ± 70 nM
BRD4(1)
  IC50: > 50000 nM
BRD9 [2]
  IC50: 17900 ± 3850 nM

## CC(=O)c1cc(-c2ccccc2CO)c2cc(C)ccn12 [Compound 13, 1-(1-(2-(hydroxymethyl)phenyl)-7-methylindolizin-3-yl)ethanone]
BAZ2A [1]
  IC50: 1000 ± 90 nM

## COc1ccn2c(C(C)=O)cc(-c3ccccc3CO)c2c1 [Compound 14, 1-(1-(2-(hydroxymethyl)phenyl)-7-methoxyindolizin-3-yl)ethanone]
BAZ2A [1]
  IC50: 1200 ± 10 nM

## CC(=O)c1cc(-c2ccccc2CO)c2cc(N3CCOCC3)ccn12 [Compound 15, 1-(1-(2-(hydroxymethyl)phenyl)-7-morpholinoindolizin-3-yl)ethanone]
BAZ2A [1]
  IC50: 1700 ± 130 nM

## CC(=O)c1cc(-c2ccccc2CO)c2cc(C(N)=O)ccn12 [Compound 16, 3-acetyl-1-(2-(hydroxymethyl)phenyl)indolizine-7-carboxamide]
BAZ2A [1]
  IC50: 4100 ± 90 nM

## CC(=O)c1cc(-c2ccccc2CO)c2cc(Oc3ccccc3)ccn12 [Compound 17, 1-(1-(2-(hydroxymethyl)phenyl)-7-phenoxyindolizin-3-yl)ethanone]
BAZ2A [1]
  IC50: 4100 ± 60 nM

## CC(=O)c1cc(-c2ccccc2S(C)(=O)=O)c2cc(CNC(=O)OC(C)(C)C)ccn12 [Compound 18, tert-butyl ((3-acetyl-1-(2-(methylsulfonyl)phenyl)indolizin-7-yl)methyl)carbamate]
BAZ2A [1]
  IC50: 160 ± 50 nM
BRD4(1)
  IC50: > 50000 nM
BRD9 [2]
  IC50: 1400 ± 40 nM

## CCCOc1ccn2c(C(C)=O)cc(-c3ccccc3S(C)(=O)=O)c2c1 [Compound 19, 1-(1-(2-(methylsulfonyl)phenyl)-7-propoxyindolizin-3-yl)ethanone]
BRD4(1)
  IC50: > 50000 nM
BRD9 [2]
  IC50: > 50000 nM
TAF1L(2)
  binding enthalpy change ΔH TAF1L(2): −8.6 (±0.02) kcal/mol
TAF1L(2); listed as GSK2801
  Kd: 3200 nM and 3190 nM
BRD9 [3]
  binding enthalpy change ΔH BRD9: −9.8 (±0.01) kcal/mol
BRD9 [3]; listed as GSK2801
  Kd: 1200 nM
BRD9 [4]
  ΔTm at 10 µM: 2.3 °C

## CC(=O)c1cc(-c2ccccc2S(C)(=O)=O)c2cc(Oc3ccccc3)ccn12 [Compound 20, 1-(1-(2-(methylsulfonyl)phenyl)-7-phenoxyindolizin-3-yl)ethanone]
BAZ2A [1]
  IC50: 550 nM
BRD4(1)
  IC50: > 50000 nM
BRD9 [2]
  IC50: 19900 ± 1840 nM

## COc1ccn2c(C(C)=O)cc(-c3ccccc3S(C)(=O)=O)c2c1 [Compound 21, 1-(7-methoxy-1-(2-(methylsulfonyl)phenyl)indolizin-3-yl)ethanone]
BAZ2A [1]
  IC50: 580 ± 50 nM
BRD4(1)
  IC50: > 50000 nM
BRD9 [2]
  IC50: > 50000 nM

## CC(=O)c1cc(-c2ccccc2S(C)(=O)=O)c2cc(C)ccn12 [Compound 22, 1-(7-methyl-1-(2-(methylsulfonyl)phenyl)indolizin-3-yl)ethanone]
BAZ2A [1]
  IC50: 890 nM

## CCCOc1ccn2c(C(C)=O)cc(-c3cccc(OC)c3)c2c1 [Compound 23, 1-(1-(3-Methoxyphenyl)-7-propoxyindolizin-3-yl)ethanone]
BRD9 [3]
  Kd: 1040 nM
  binding enthalpy change ΔH BRD9: −8.98 (± 0.152) kcal/mol
[5]
  selectivity in BLI bromodomain panel: inactive against BAZ2A/B and all other bromodomains except BRD9
BRD9 [6]
  pKd BRD9: 4.5
BAZ2A [7]
  binding to endogenous BAZ2A: did not show any binding
BAZ2B
  binding to endogenous BAZ2B: did not show any binding
SMARCA2 and 4
  pKd SMARCA2 and 4: 4.8
